Measured values reported in ChEMBL document CHEMBL1141332, “Cytotoxic metabolites from an Indonesian sponge Lendenfeldia sp” (J Nat Prod, 2007).

What was measured:
Type in all cases: functional
K562 = experiment: Cytotoxicity against human K562 cells
MOLT-4 = experiment: Cytotoxicity against human MOLT4 cells
SR = experiment: Cytotoxicity against human SR cells
EKVX = experiment: Cytotoxicity against human EKVX cells
HOP-62 = experiment: Cytotoxicity against human HOP62 cells
HOP-92 = experiment: Cytotoxicity against human HOP92 cells
NCI-H226 = experiment: Cytotoxicity against human NCI-H226 cells
NCI-H23 = experiment: Cytotoxicity against human NCI-H23 cells
NCI-H322M = experiment: Cytotoxicity against human NCI-H322M cells
NCI-H460 = experiment: Cytotoxicity against human NCI-H460 cells
NCI-H522 = experiment: Cytotoxicity against human NCI-H522 cells
LOX IMVI = experiment: Cytotoxicity against human LOX IMVI cells
HCT-116 = experiment: Cytotoxicity against human HCT116 cells
HCT-15 = experiment: Cytotoxicity against human HCT15 cells
HT-29 = experiment: Cytotoxicity against human HT29 cells
KM12 = experiment: Cytotoxicity against human KM12 cells
SW-620 = experiment: Cytotoxicity against human SW620 cells
SF-268 = experiment: Cytotoxicity against human SF268 cells
SF-295 = experiment: Cytotoxicity against human SF295 cells
SF-539 = experiment: Cytotoxicity against human SF539 cells
SNB-19 = experiment: Cytotoxicity against human SNB19 cells
SNB-75 = experiment: Cytotoxicity against human SNB75 cells
U-251 = experiment: Cytotoxicity against human U251cells
M14 = experiment: Cytotoxicity against human M14 cells
SK-MEL-2 = experiment: Cytotoxicity against human SK-MEL-2 cells
SK-MEL-28 = experiment: Cytotoxicity against human SK-MEL-28 cells
SK-MEL-5 = experiment: Cytotoxicity against human SK-MEL-5 cells
UACC-257 = experiment: Cytotoxicity against human UACC257 cells
UACC-62 = experiment: Cytotoxicity against human UACC62 cells
IGROV-1 = experiment: Cytotoxicity against human IGROV1 cells
OVCAR-3 = experiment: Cytotoxicity against human OVCAR-3 cells
OVCAR-4 = experiment: Cytotoxicity against human OVCAR4 cells
OVCAR-8 = experiment: Cytotoxicity against human OVCAR8 cells
786-0 = experiment: Cytotoxicity against human 786-0 cells
A498 = experiment: Cytotoxicity against human A498 cells
ACHN = experiment: Cytotoxicity against human ACHN cells
RXF 393 = experiment: Cytotoxicity against human RXF393 cells
TK-10 = experiment: Cytotoxicity against human TK10 cells
UO-31 = experiment: Cytotoxicity against human UO31 cells
PC-3 = experiment: Cytotoxicity against human PC3 cells
MCF7 = experiment: Cytotoxicity against human MCF7 cells
NCI/ADR-RES = experiment: Cytotoxicity against human NCI/ADR-RES cells
MDA-MB-231 = experiment: Cytotoxicity against human MDA-MB-231 cells
[1] = Cytotoxicity against human HS578T cells; conditions: Hs-578T
BT-549 = experiment: Cytotoxicity against human BT549 cells
T47D = experiment: Cytotoxicity against human T47D cells
[2] = read-out: Log LC50 (the source's name) (converted)

CC(=O)O[C@H]1C[C@H]2[C@@](C)(CC[C@H]3C(C)(C)CCC[C@@]32CO)[C@@H]2CC=C(C(C)=O)[C@H](C=O)[C@@]12C
GI50 (K562): 2190 nM | CC50 (K562; [2]): 30.2 µM | TGI (K562; read-out: Log TGI (converted)): 7.76 µM | GI50 (MOLT-4): 195 nM | CC50 (MOLT-4; [2]): 1950 nM | TGI (MOLT-4; read-out: Log TGI (converted)): 513 nM | GI50 (SR): 288 nM | CC50 (SR; [2]): 3.72 µM | TGI (SR; read-out: Log TGI (converted)): 759 nM | GI50 (EKVX): 832 nM | CC50 (EKVX; [2]): 4.9 µM | TGI (EKVX; read-out: Log TGI (converted)): 2140 nM | GI50 (HOP-62): 295 nM | CC50 (HOP-62; [2]): 2450 nM | TGI (HOP-62; read-out: Log TGI (converted)): 724 nM | GI50 (HOP-92): 1350 nM | CC50 (HOP-92; [2]): 5.5 µM | TGI (HOP-92; read-out: Log TGI (converted)): 2750 nM | GI50 (NCI-H226): 1380 nM | CC50 (NCI-H226; [2]): > 100 µM | TGI (NCI-H226; read-out: Log TGI (converted)): 2820 nM | GI50 (NCI-H23): 1410 nM | CC50 (NCI-H23; [2]): 5.5 µM | TGI (NCI-H23; read-out: Log TGI (converted)): 2750 nM | GI50 (NCI-H322M): 1910 nM | CC50 (NCI-H322M; [2]): 7.59 µM | TGI (NCI-H322M; read-out: Log TGI (converted)): 3.8 µM | GI50 (NCI-H460): 759 nM | CC50 (NCI-H460; [2]): 6.03 µM | TGI (NCI-H460; read-out: Log TGI (converted)): 2290 nM | GI50 (NCI-H522): 1050 nM | CC50 (NCI-H522; [2]): 6.46 µM | TGI (NCI-H522; read-out: Log TGI (converted)): 2570 nM | GI50 (LOX IMVI): 234 nM | CC50 (LOX IMVI; [2]): 1780 nM | TGI (LOX IMVI; read-out: Log TGI (converted)): 550 nM | GI50 (HCT-116): 186 nM | CC50 (HCT-116; [2]): 676 nM | TGI (HCT-116; read-out: Log TGI (converted)): 355 nM | GI50 (HCT-15): 224 nM | CC50 (HCT-15; [2]): 1230 nM | TGI (HCT-15; read-out: Log TGI (converted)): 490 nM | GI50 (HT-29): 324 nM | CC50 (HT-29; [2]): 4.27 µM | TGI (HT-29; read-out: Log TGI (converted)): 1150 nM | GI50 (KM12): 501 nM | CC50 (KM12; [2]): 4.57 µM | TGI (KM12; read-out: Log TGI (converted)): 1700 nM | GI50 (SW-620): 162 nM | CC50 (SW-620; [2]): 676 nM | TGI (SW-620; read-out: Log TGI (converted)): 331 nM | GI50 (SF-268): 447 nM | CC50 (SF-268; [2]): 6.17 µM | TGI (SF-268; read-out: Log TGI (converted)): 1860 nM | GI50 (SF-295): 479 nM | CC50 (SF-295; [2]): 4.27 µM | TGI (SF-295; read-out: Log TGI (converted)): 1740 nM | GI50 (SF-539): 195 nM | CC50 (SF-539; [2]): 794 nM | TGI (SF-539; read-out: Log TGI (converted)): 389 nM | GI50 (SNB-19): 1120 nM | CC50 (SNB-19; [2]): 5.75 µM | TGI (SNB-19; read-out: Log TGI (converted)): 2570 nM | GI50 (SNB-75): 355 nM | CC50 (SNB-75; [2]): 3.47 µM | TGI (SNB-75; read-out: Log TGI (converted)): 1120 nM | GI50 (U-251): 347 nM | CC50 (U-251; [2]): 3.47 µM | TGI (U-251; read-out: Log TGI (converted)): 1200 nM | GI50 (M14): 1000 nM | CC50 (M14; [2]): 4.9 µM | TGI (M14; read-out: Log TGI (converted)): 2240 nM | GI50 (SK-MEL-2): 1620 nM | CC50 (SK-MEL-2; [2]): 8.13 µM | TGI (SK-MEL-2; read-out: Log TGI (converted)): 3.63 µM | GI50 (SK-MEL-28): 251 nM | CC50 (SK-MEL-28; [2]): 2290 nM | TGI (SK-MEL-28; read-out: Log TGI (converted)): 631 nM | GI50 (SK-MEL-5): 501 nM | CC50 (SK-MEL-5; [2]): 4.07 µM | TGI (SK-MEL-5; read-out: Log TGI (converted)): 1700 nM | GI50 (UACC-257): 1950 nM | CC50 (UACC-257; [2]): 9.55 µM | TGI (UACC-257; read-out: Log TGI (converted)): 4.37 µM | GI50 (UACC-62): 1480 nM | CC50 (UACC-62; [2]): 5.37 µM | TGI (UACC-62; read-out: Log TGI (converted)): 2820 nM | GI50 (IGROV-1): 1580 nM | CC50 (IGROV-1; [2]): 7.08 µM | TGI (IGROV-1; read-out: Log TGI (converted)): 3.31 µM | GI50 (OVCAR-3): 204 nM | CC50 (OVCAR-3; [2]): 676 nM | TGI (OVCAR-3; read-out: Log TGI (converted)): 372 nM | GI50 (OVCAR-4): 575 nM | CC50 (OVCAR-4; [2]): 5.01 µM | TGI (OVCAR-4; read-out: Log TGI (converted)): 1910 nM | GI50 (OVCAR-8): 263 nM | TGI (OVCAR-8; read-out: Log TGI (converted)): 692 nM | GI50 (786-0): 224 nM | CC50 (786-0; [2]): 1170 nM | TGI (786-0; read-out: Log TGI (converted)): 490 nM | GI50 (A498): 1480 nM | LC50 (A498): 5.89 µM | TGI (A498; read-out: Log TGI (converted)): 2950 nM | GI50 (ACHN): 282 nM | LC50 (ACHN): 3.24 µM | TGI (ACHN; read-out: Log TGI (converted)): 1070 nM | GI50 (RXF 393): 295 nM | LC50 (RXF 393): 3.63 µM | TGI (RXF 393; read-out: Log TGI (converted)): 1120 nM | GI50 (TK-10): 302 nM | LC50 (TK-10): 3.39 µM | TGI (TK-10; read-out: Log TGI (converted)): 891 nM | GI50 (UO-31): 417 nM | LC50 (UO-31): 3.98 µM | TGI (UO-31; read-out: Log TGI (converted)): 1450 nM | GI50 (PC-3): 380 nM | LC50 (PC-3): 3.8 µM | TGI (PC-3; read-out: Log TGI (converted)): 1350 nM | GI50 (MCF7): 776 nM | LC50 (MCF7): 25.7 µM | TGI (MCF7; read-out: Log TGI (converted)): 3.47 µM | GI50 (NCI/ADR-RES): 1070 nM | LC50 (NCI/ADR-RES): 6.17 µM | TGI (NCI/ADR-RES; read-out: Log TGI (converted)): 2570 nM | GI50 (MDA-MB-231): 891 nM | LC50 (MDA-MB-231): 4.57 µM | TGI (MDA-MB-231; read-out: Log TGI (converted)): 2090 nM | GI50 [1]: 240 nM | LC50 [1]: 3.24 µM | TGI ([1]; read-out: Log TGI (converted)): 646 nM | GI50 (BT-549): 214 nM | LC50 (BT-549): 977 nM | TGI (BT-549; read-out: Log TGI (converted)): 457 nM | GI50 (T47D): 1020 nM | LC50 (T47D): 8.91 µM | TGI (T47D; read-out: Log TGI (converted)): 3.02 µM
